These results are taken from US20250051332A1 (priority 2022, published 2025).

The structures appear in SMILES notation.

For one series, the target named is T1, κOR (Homo sapiens, UniProt P41145).
T1 construct: host or cells: CHO-K1
The series can be described thus: PathHunter β-arrestin-2 recruitment assay at the κOR. The conditions noted are these: FIG. 6. In kind it is cell-based. From the text: Cell Lines and Cell Culture. To perform the HitHunter cAMP accumulation assay, Chinese hamster ovary cells (CHO-K1) stably expressing human μ-opioid receptor (OPRM1, catalog no. 95-0107C2, DiscoverX, Fremont, CA, USA), K-opioid receptor (OPRK1, catalog no. 95-0088C2, DiscoverX, Fremont, CA, USA), or 6-opioid receptor (OPRD1, catalog no. 95-0108C2, DiscoverX, Fremont, CA, USA) were maintained at 80% confluence in F-12 media supplemented with 10% fetal bovine serum, 1% penicillin/streptomycin/L-glutamine, and 800 μg/mL G418. To perform the PathHunter β-arrestin-2 recruitment assay, U2OS-human κ opioid receptor (κOR) cells stably expressing the κOR and β-arrestin-2 (RRID:CVCL_LA97, DiscoverX, Fremont, CA, USA) were maintained in McCoy's 5A media supplemented with 10% FBS and containing 500 μg/mL geneticin and 250 μg/mL hygromycin. All cells were grown 37° C. under 5% CO2 in a humidified incubator under sterile conditions in T75 flasks. During passaging, cells were dislodged from the flask following a 3-5 min incubation with 0.25% trypsin or non-enzymatic detachment reagent and subcultivated at ratios of 1:10 (CHO) and 3:10 (U2OS).
PathHunter β-arrestin-2 Recruitment Assay. The R-arrestin-2 recruitment assay was performed using U2OS-human (κOR) PathHunter R-arrestin-2 cells (DiscoverX) as previously described.^77

A further series deals with MOR (Homo sapiens, UniProt P35372). Nature of the series: PDSP radioligand displacement binding. Conditions: average of three independent trials. A general note: Loss of bound radioactivity is the signal in a displacement assay; it reports binding, not function.
The next series has as its target DOR (Homo sapiens, UniProt P41143). The series can be described thus: PDSP radioligand displacement binding. Conditions: average of three independent trials.
Another series deals with T2, Alpha1B (Homo sapiens, UniProt P35368).
T2 sequence (P35368 1-520): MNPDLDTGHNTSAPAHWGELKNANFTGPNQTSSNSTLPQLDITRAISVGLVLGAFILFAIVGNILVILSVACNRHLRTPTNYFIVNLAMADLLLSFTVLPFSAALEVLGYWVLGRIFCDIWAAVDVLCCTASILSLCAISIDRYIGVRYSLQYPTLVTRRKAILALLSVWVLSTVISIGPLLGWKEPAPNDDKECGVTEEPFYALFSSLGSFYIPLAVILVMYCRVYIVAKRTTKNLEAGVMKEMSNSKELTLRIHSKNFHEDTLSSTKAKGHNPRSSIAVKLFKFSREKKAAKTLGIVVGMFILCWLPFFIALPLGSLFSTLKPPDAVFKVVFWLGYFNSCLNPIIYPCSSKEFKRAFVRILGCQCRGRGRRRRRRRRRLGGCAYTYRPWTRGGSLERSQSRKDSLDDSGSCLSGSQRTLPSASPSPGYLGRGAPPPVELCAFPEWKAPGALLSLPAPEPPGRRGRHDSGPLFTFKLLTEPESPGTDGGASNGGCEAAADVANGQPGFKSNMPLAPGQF
Nature of the series: PDSP radioligand displacement binding. The conditions noted are these: average of three independent trials.

The target in the next series is T3, Alpha2A (Homo sapiens, UniProt P08913).
T3 sequence (P08913 1-465): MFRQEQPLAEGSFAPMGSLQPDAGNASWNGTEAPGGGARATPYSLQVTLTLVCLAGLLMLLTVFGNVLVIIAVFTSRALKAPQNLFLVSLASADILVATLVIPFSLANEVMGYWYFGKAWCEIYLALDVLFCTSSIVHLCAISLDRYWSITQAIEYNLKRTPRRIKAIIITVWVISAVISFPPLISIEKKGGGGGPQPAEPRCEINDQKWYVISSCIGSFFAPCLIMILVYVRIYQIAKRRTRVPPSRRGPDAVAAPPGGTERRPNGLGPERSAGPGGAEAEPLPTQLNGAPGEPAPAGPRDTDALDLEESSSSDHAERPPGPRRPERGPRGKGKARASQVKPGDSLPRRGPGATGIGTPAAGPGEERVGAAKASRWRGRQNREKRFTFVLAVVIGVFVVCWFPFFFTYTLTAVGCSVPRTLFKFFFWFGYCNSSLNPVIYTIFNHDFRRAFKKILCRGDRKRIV
The series can be described thus: PDSP radioligand displacement binding. Conditions: average of three independent trials.

In the next series the target is T4, Alpha2B (Homo sapiens, UniProt P18089).
T4 sequence (P18089 1-450): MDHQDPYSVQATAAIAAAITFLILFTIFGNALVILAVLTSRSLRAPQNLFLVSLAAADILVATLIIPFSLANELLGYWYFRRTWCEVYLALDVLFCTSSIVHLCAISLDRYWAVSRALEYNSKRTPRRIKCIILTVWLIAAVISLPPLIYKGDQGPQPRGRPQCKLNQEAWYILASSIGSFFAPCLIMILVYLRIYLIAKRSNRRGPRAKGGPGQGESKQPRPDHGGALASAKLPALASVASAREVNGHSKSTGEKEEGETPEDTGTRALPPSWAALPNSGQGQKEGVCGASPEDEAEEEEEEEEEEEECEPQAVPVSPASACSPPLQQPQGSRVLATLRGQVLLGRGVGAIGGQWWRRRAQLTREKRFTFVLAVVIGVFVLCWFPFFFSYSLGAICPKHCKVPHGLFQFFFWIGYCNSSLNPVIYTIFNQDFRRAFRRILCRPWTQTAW
Nature of the series: PDSP radioligand displacement binding. Conditions: average of three independent trials.

For another series, the target named is T5, Alpha2C (Homo sapiens, UniProt P18825).
T5 sequence (P18825 1-462): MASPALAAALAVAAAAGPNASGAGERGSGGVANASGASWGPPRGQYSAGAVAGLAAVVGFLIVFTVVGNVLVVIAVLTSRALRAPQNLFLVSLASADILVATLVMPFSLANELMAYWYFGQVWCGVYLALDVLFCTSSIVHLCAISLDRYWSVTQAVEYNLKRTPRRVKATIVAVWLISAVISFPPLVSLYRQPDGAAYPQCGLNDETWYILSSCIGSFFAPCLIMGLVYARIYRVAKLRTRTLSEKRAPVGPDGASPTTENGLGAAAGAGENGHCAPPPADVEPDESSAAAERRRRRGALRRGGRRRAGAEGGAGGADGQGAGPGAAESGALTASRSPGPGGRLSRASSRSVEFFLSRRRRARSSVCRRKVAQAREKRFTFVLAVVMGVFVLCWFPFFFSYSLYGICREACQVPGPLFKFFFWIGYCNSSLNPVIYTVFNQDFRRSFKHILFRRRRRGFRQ
The series can be described thus: PDSP radioligand displacement binding. The conditions noted are these: average of three independent trials.

In the next series the target is HERG (Homo sapiens, UniProt Q12809). Nature of the series: PDSP radioligand displacement binding. Conditions: average of three independent trials.
For the next series, the target named is Sigma 2. The series can be described thus: PDSP radioligand displacement binding. The conditions noted are these: average of three independent trials.

MOR, sequence (P35372 whole entry): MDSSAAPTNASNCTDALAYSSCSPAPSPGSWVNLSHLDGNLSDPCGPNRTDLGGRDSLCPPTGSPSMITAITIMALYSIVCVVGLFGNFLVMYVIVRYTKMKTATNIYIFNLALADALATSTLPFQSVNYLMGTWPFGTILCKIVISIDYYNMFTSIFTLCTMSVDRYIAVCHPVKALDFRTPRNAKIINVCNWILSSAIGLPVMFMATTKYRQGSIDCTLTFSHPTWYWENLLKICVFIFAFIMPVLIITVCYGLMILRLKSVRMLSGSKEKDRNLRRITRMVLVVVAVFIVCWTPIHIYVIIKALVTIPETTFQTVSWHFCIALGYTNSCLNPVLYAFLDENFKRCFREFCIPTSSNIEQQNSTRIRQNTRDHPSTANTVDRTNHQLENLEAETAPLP
HERG, sequence (Q12809 whole entry): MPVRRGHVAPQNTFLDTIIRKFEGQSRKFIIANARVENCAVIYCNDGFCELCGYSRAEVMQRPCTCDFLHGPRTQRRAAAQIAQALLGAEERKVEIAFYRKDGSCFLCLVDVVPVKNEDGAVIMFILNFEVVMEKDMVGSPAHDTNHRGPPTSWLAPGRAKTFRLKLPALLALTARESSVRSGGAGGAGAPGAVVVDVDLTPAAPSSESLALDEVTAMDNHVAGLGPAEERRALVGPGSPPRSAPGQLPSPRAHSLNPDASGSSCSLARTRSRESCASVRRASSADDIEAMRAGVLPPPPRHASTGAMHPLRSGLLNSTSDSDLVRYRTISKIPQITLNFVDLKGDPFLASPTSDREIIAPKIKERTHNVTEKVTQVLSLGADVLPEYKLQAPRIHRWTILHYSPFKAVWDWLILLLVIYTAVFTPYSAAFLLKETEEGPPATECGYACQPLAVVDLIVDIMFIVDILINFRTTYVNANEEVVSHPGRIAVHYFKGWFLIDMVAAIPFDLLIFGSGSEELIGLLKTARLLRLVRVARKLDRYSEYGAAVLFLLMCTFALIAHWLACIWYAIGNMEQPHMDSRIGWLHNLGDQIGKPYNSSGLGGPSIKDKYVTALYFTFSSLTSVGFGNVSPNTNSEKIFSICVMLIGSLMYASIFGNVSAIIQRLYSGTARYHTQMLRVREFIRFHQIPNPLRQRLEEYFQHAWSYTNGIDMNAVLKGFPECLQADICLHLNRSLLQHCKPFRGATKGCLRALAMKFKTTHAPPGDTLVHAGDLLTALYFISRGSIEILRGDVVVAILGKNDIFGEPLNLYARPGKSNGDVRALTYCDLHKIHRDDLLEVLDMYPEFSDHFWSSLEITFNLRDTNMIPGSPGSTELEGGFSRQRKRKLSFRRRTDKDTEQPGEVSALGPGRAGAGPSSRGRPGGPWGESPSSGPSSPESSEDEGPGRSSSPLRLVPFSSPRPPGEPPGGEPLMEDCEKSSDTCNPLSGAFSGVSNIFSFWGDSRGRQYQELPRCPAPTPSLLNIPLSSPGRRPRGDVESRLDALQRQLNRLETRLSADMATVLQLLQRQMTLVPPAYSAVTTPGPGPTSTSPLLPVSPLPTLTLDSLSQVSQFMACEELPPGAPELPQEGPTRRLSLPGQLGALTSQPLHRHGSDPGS
T1 sequence (P41145 whole entry): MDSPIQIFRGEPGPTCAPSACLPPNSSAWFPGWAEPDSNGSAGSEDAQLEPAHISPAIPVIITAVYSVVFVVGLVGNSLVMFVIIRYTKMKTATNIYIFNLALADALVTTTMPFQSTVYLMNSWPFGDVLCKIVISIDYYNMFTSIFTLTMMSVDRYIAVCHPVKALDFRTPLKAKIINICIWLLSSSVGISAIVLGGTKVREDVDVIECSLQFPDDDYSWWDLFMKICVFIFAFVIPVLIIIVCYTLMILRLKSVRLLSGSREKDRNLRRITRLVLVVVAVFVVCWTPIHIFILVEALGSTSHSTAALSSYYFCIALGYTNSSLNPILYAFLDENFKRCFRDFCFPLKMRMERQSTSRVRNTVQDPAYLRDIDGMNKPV
DOR, sequence (P41143 whole entry): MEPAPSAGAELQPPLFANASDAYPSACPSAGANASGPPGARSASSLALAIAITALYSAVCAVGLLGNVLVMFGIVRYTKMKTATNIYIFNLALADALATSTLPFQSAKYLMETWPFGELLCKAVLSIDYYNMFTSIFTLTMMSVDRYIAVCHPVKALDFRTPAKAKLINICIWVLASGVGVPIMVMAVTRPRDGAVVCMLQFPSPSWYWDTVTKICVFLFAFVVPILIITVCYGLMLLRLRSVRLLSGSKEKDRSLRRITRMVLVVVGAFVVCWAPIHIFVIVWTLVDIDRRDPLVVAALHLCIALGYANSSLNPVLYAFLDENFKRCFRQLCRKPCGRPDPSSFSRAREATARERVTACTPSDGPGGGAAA

Broadly, the Ki is the dissociation constant of the complex between target and ligand, obtained from inhibition or displacement. For the compound `C/C=C1/CN2CC[C@]34C(=C(C(=O)OC)[C@H]1C[C@H]23)Nc1ccc(I)cc14` [Compound 3, 10-Iodoakuammicine], at κOR, the “βArr2 recruitment compared with U50,488” value was “more efficacious than the reference compound U50,488”. For the same compound, the “Ki (nM) at MOR” value at MOR is recorded as “— (“—” indicates compound produced less than 50% displacement of radioligand in primary binding screen at 10 μM.)”. For the same compound, the “Ki (nM) at DOR” value on DOR is reported as “— (“—” indicates compound produced less than 50% displacement of radioligand in primary binding screen at 10 μM.)”. For the same compound, the Ki turned out to be 2020 nM at Alpha1B; 732 nM on Alpha2A; 2860 nM on Alpha2C; 1100 nM on HERG; 2220 nM on Sigma 2. For the same compound, the “Ki (nM) at Alpha2B” value on Alpha2B was “— (“—” indicates compound produced less than 50% displacement of radioligand in primary binding screen at 10 μM.)”.
In the case of `C/C=C1/CN2CC[C@]34C(=C(C(=O)OC)[C@H]1C[C@H]23)Nc1ccc(Br)cc14` [Compound 2, 10-Bromoakuammicine], the “βArr2 recruitment compared with U50,488” value at κOR was “more efficacious than the reference compound U50,488”. Moreover, the “Ki (nM) at MOR” value at MOR was “— (“—” indicates compound produced less than 50% displacement of radioligand in primary binding screen at 10 μM.)”. In addition, the “Ki (nM) at DOR” value on DOR is reported as “— (“—” indicates compound produced less than 50% displacement of radioligand in primary binding screen at 10 μM.)”. The Ki on Alpha1B was 2880 nM; on Alpha2A, more than 10000 nM; on Alpha2B, 1250 nM; on Alpha2C it was 2910 nM; on HERG, 1340 nM; at Sigma 2, 2620 nM.
